Measurements taken from US20240285594A1, “COMPOSITIONS AND METHODS FOR TREATING PAIN IN ANIMALS” (North Carolina State University, priority 2023, published 2024).

Experiment: Observations and limited gross necropsy of the nasal cavity after IN or IM flunixin
Format: in vivo, grower pigs
Method: Six female Yorkshire cross grower pigs approximately 8 weeks of age with no history of flunixin administration in a 30-day period were sourced from a production farm and enrolled in the study. The pigs were determined to be healthy by veterinary physical examination and pigs initially weighed between 18.0-22.0 kg. The pigs were individually housed in climate-controlled rooms with a 12:12 light dark cycle at the North Carolina State University College of Veterinary Medicine to prevent cross contamination between pigs and damage to jugular catheters. The pens had non-slip flooring, allowed the pigs to move freely, provided enrichment, and were cleaned at least twice daily. The pigs had ad libitum access to water via a nipple drinker and were fed 0.5 quarts of Nature's Match twice daily. The pigs acclimated for 1-2 days before they were anesthetized for jugular catheter placement as described in the pilot study above and were provided approximately 24 hours to recover from anesthesia before the study began. From the time of arrival until the end of the study, the pigs were monitored at least twice daily for general appearance, attitude, appetite, and wellbeing.

In the case of `Cc1c(Nc2ncccc2C(=O)O)cccc1C(F)(F)F` [flunixin meglumine], the “adverse effects on the pigs” value (following IN or IM administration, 2.2 mg/kg) is reported as “No major adverse effects” and the “limited gross necropsy of the nasal cavity” value (following euthanasia, after IN administration) is reported as “no negative effects”.
